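How tested: cells in 96-well plates exposed to compound for 48 hours at five concentrations. Abbreviation: GI50, concentration required for 50% inhibition of growth.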 Calls of active or inactive are those of the source. Cut-off read from the data, not from the text of the source: active = GI50 up to about 1.1 µM and inactive = higher.
Key:
Assay in all cases: NCI-60 cell line screen, 48 h
[1] = system: SR
[2] = system: NCI-H226
[3] = system: COLO 205
[4] = system: HCC 2998
[5] = system: MOLT-4
[6] = system: HL-60
[7] = system: IGROV-1
[8] = system: OVCAR-5
[9] = system: UACC-257
[10] = system: MDA-MB-231
[11] = system: T47D
[12] = system: Hs-578T
[13] = system: PC-3
[14] = system: 786-0
[15] = system: Malme-3M
[16] = system: HCT-15
[17] = system: HOP-62
[18] = system: TK-10
[19] = system: NCI-H23
[20] = system: UACC-62
[21] = system: NCI-H460
[22] = system: HCT-116
[23] = system: M14
[24] = system: SNB-75
[25] = system: OVCAR-4
[26] = system: SNB-19
[27] = system: DU-145
[28] = system: MDA-N
[29] = system: HT-29
[30] = system: MDA-MB-435
[31] = system: RPMI-8226
[32] = system: SF-539
[33] = system: EKVX
[34] = system: SW-620
[35] = system: CCRF-CEM
[36] = system: SK-MEL-5
[37] = system: SK-OV-3
[38] = system: RXF 393
[39] = system: KM12
[40] = system: UO-31
[41] = system: CAKI-1
[42] = system: NCI/ADR-RES
[43] = system: K562
[44] = system: HOP-92
[45] = system: OVCAR-8
[46] = system: SK-MEL-2
[47] = system: LOX IMVI
[48] = system: MCF7
[49] = system: SK-MEL-28
[50] = system: U-251
[51] = system: A549
[52] = system: SF-295
[53] = system: ACHN
[54] = system: OVCAR-3
[55] = system: SF-268
[56] = system: SN12C
[57] = system: NCI-H522
[58] = system: A498

With `O=[N+]([O-])c1ccc2c(c1)=[N+]([O-])C1(CCCCC1)[N+]=2[O-]` the GI50 [1] was 6.43 µM (inactive), the GI50 [2] was 21.1 µM (inactive) and the GI50 [3] was 12.1 µM (inactive). For the same compound, the GI50 [4] was 18.3 µM (inactive), the GI50 [5] was 6.15 µM (inactive) and the GI50 [6] was 3.27 µM (inactive). The GI50 [7] was 20.4 µM (inactive), the GI50 [8] was 20.5 µM (inactive) and the GI50 [9] was 15.1 µM (inactive). For the same compound, the GI50 [10] was 18.2 µM (inactive), the GI50 [11] was 25.5 µM (inactive) and the GI50 [12] was 21.5 µM (inactive). The GI50 [13] was 17.5 µM (inactive), the GI50 [14] was 11.5 µM (inactive) and the GI50 [15] was 15.2 µM (inactive). For the same compound, the GI50 [16] was 18.2 µM, the GI50 [17] was 17.1 µM (inactive) and the GI50 [18] was 13.3 µM (inactive). The GI50 [19] was 22.9 µM (inactive), the GI50 [20] was 10.4 µM (inactive) and the GI50 [21] was 18.8 µM (inactive). For the same compound, the GI50 [22] was 17.1 µM (inactive), the GI50 [23] was 15.6 µM (inactive) and the GI50 [24] was 17.3 µM (inactive). The GI50 [25] was 11.6 µM (inactive), the GI50 [26] was 36.4 µM (inactive) and the GI50 [27] was 18.9 µM (inactive). The GI50 [28] was 18 µM (inactive), the GI50 [29] was 19.5 µM (inactive) and the GI50 [30] was 13.7 µM (inactive). The GI50 [31] was 10.2 µM (inactive), the GI50 [32] was 18.5 µM (inactive) and the GI50 [33] was 15.5 µM (inactive). The GI50 [34] was 15.9 µM (inactive), the GI50 [35] was 3.36 µM (inactive) and the GI50 [36] was 15 µM (inactive). The GI50 [37] was 22.5 µM (inactive), the GI50 [38] was 18.5 µM (inactive) and the GI50 [39] was 20.5 µM (inactive). For the same compound, the GI50 [40] was 19.6 µM (inactive), the GI50 [41] was 20.4 µM (inactive) and the GI50 [42] was 26.2 µM (inactive). The GI50 [43] was 15.8 µM (inactive), the GI50 [44] was 15.3 µM (inactive) and the GI50 [45] was 15.8 µM (inactive). For the same compound, the GI50 [46] was 22.1 µM (inactive), the GI50 [47] was 19.9 µM (inactive) and the GI50 [48] was 16.1 µM (inactive). For the same compound, the GI50 [49] was 19.3 µM (inactive), the GI50 [50] was 17.2 µM (inactive) and the GI50 [51] was 19.7 µM (inactive). For the same compound, the GI50 [52] was 19.8 µM (inactive), the GI50 [53] was 19.6 µM (inactive) and the GI50 [54] was 15.6 µM (inactive). For the same compound, the GI50 [55] was 26.9 µM (inactive) and the GI50 [56] was 17.5 µM (inactive).

With `CCCCCCCCCCCCC/C=C/[C@@H](O)[C@H](COC1OC(CO)C(OC2OC(CO)C(O)C(OC3(C(=O)O)CC(O)C(NC(C)=O)C(C(O)C(O)CO)O3)C2O)C(O)C1O)N=[N+]=[N-]` (stereo partly specified) the GI50 [2] was 20.8 µM (inactive), the GI50 [3] was 17.8 µM (inactive) and the GI50 [4] was > 100 µM (inactive). The GI50 [5] was 21.7 µM (inactive), the GI50 [6] was 37.5 µM (inactive) and the GI50 [7] was 32.9 µM (inactive). For the same compound, the GI50 [57] was 32.5 µM (inactive), the GI50 [8] was 56 µM (inactive) and the GI50 [9] was 40 µM (inactive). For the same compound, the GI50 [10] was > 100 µM (inactive), the GI50 [11] was 48.5 µM (inactive) and the GI50 [12] was 55.7 µM (inactive). The GI50 [13] was 24.2 µM (inactive), the GI50 [14] was > 100 µM (inactive) and the GI50 [15] was 21.8 µM (inactive). The GI50 [16] was 72.9 µM, the GI50 [17] was 20.5 µM (inactive) and the GI50 [18] was > 100 µM (inactive). For the same compound, the GI50 [19] was > 100 µM (inactive), the GI50 [20] was 15.8 µM (inactive) and the GI50 [21] was 36.9 µM (inactive). For the same compound, the GI50 [22] was 70.1 µM (inactive), the GI50 [23] was 18.7 µM (inactive) and the GI50 [24] was 15.9 µM (inactive). The GI50 [25] was > 100 µM (inactive), the GI50 [26] was 34 µM (inactive) and the GI50 [27] was > 100 µM (inactive). For the same compound, the GI50 [28] was > 100 µM (inactive), the GI50 [29] was 22 µM (inactive) and the GI50 [30] was > 100 µM (inactive). For the same compound, the GI50 [31] was 95.3 µM (inactive), the GI50 [32] was 17.5 µM (inactive) and the GI50 [33] was > 100 µM (inactive). The GI50 [34] was 26.7 µM (inactive), the GI50 [35] was 22.5 µM (inactive) and the GI50 [36] was 17.4 µM (inactive). For the same compound, the GI50 [37] was 31.2 µM (inactive), the GI50 [38] was 20.7 µM (inactive) and the GI50 [39] was 18.5 µM (inactive). The GI50 [40] was 23 µM (inactive), the GI50 [41] was > 100 µM (inactive) and the GI50 [42] was 21.8 µM (inactive). The GI50 [43] was 27.4 µM (inactive), the GI50 [44] was > 100 µM (inactive) and the GI50 [45] was 21.8 µM (inactive). For the same compound, the GI50 [46] was 17.5 µM (inactive), the GI50 [47] was 20.2 µM (inactive) and the GI50 [48] was > 100 µM (inactive). The GI50 [49] was 30.3 µM (inactive), the GI50 [50] was 19.9 µM (inactive) and the GI50 [51] was > 100 µM (inactive). The GI50 [52] was 26.4 µM (inactive), the GI50 [53] was > 100 µM (inactive) and the GI50 [54] was > 100 µM (inactive). For the same compound, the GI50 [58] was 47.2 µM (inactive), the GI50 [55] was 22.2 µM (inactive) and the GI50 [56] was > 100 µM (inactive).

With `COc1ccc2[nH]c3c([N+](=O)[O-])ccc(NCCN(C)C)c3/c(=N/CCN(C)C)c2c1` the GI50 [1] was 0.117 µM (active), the GI50 [3] was 2.01 µM (inactive) and the GI50 [4] was 0.867 µM (active). The GI50 [5] was 0.172 µM (active), the GI50 [6] was 1.31 µM (inactive) and the GI50 [7] was 1.91 µM (inactive). For the same compound, the GI50 [9] was > 10 µM (inactive), the GI50 [10] was 1.28 µM (inactive) and the GI50 [11] was > 10 µM (inactive). The GI50 [13] was 0.676 µM (active), the GI50 [14] was 0.577 µM (active) and the GI50 [15] was 2.58 µM (inactive). The GI50 [16] was 1.31 µM, the GI50 [17] was 0.695 µM (active) and the GI50 [18] was 3.13 µM (inactive). The GI50 [19] was 1.49 µM (inactive), the GI50 [20] was 7.23 µM (inactive) and the GI50 [23] was > 10 µM (inactive). For the same compound, the GI50 [24] was 1.8 µM (inactive), the GI50 [25] was 0.521 µM (active) and the GI50 [27] was 2.88 µM (inactive). For the same compound, the GI50 [28] was 1.75 µM (inactive), the GI50 [29] was 1.77 µM (inactive) and the GI50 [30] was 1.63 µM (inactive). The GI50 [31] was 0.421 µM (active), the GI50 [33] was 2.24 µM (inactive) and the GI50 [34] was 1.04 µM (active). For the same compound, the GI50 [35] was 0.237 µM (active), the GI50 [36] was 1.86 µM (inactive) and the GI50 [37] was 2.85 µM (inactive). For the same compound, the GI50 [38] was 1.03 µM (active), the GI50 [39] was 1.26 µM (inactive) and the GI50 [41] was 3.97 µM (inactive). The GI50 [43] was 1.22 µM (inactive), the GI50 [44] was 5.08 µM (inactive) and the GI50 [45] was 0.634 µM (active). For the same compound, the GI50 [47] was 1.62 µM (inactive), the GI50 [48] was 0.453 µM (active) and the GI50 [49] was 2.26 µM (inactive). The GI50 [51] was 1.66 µM (inactive), the GI50 [52] was 1.58 µM (inactive) and the GI50 [55] was 0.962 µM (active). The GI50 [56] was 1.37 µM (inactive).

— ChEMBL document CHEMBL1201862, “PubChem BioAssay data set” (2004)
